Results taken from PMC3196554 (Chemical research in toxicology, 2010).
Read-outs that look alike come from different tables or passages of the source.

Assays:
[1] = for Amount in urine collected for 10 h after consumption of cooked beef: Mean ± SD of 3 independent measurements; for % Dose in urine collected for 10 h after consumption of cooked beef: metabolites as % of dose of parent MeIQx or PhIP; for Amount in urine, Overall mean: mean of 3 days; for Amount present in urine samples: urine after meat consumption, LOQ ~50 pg/mL
P450 1A2 [2] = settings: subjects given furafylline prior to cooked beef; cited from earlier work
P450 1A2 [3] = settings: human liver microsomes, cited from earlier work
[4] = cited from earlier work
[5] = Acid hydrolysis of conjugates; assay type: physicochemical; settings: 50% (v/v) glacial acetic acid or 1 N HCl, 80 °C for 8 h
[6] = human, in vivo
human liver UGTs = settings: human liver microsomes fortified with UDPGA; cited from earlier work

Structure (SMILES): Cn1c(N)nc2ncc(-c3ccc(O)cc3)cc21 [4'-HO-PhIP, 2-amino-1-methyl-6-(4′-hydroxy)-phenylimidazo[4,5-b]pyridine]
- Amount in urine collected for 10 h after consumption of cooked beef ([1]; Subject S-001): 20.1 ± 9.9 ng
- % Dose in urine collected for 10 h after consumption of cooked beef ([1]; Subject S-001): 0.4 % Dose
- Amount in urine collected for 10 h after consumption of cooked beef ([1]; Subject S-003): 35.0 ± 3.4 ng
- % Dose in urine collected for 10 h after consumption of cooked beef ([1]; Subject S-003): 0.7 % Dose
- Amount in urine collected for 10 h after consumption of cooked beef ([1]; Subject S-005): 41.7 ± 0.9 ng
- % Dose in urine collected for 10 h after consumption of cooked beef ([1]; Subject S-005): 0.8 % Dose
- Amount in urine collected for 10 h after consumption of cooked beef ([1]; Subject S-008): 27.0 ± 3.8 ng
- % Dose in urine collected for 10 h after consumption of cooked beef ([1]; Subject S-008): 0.5 % Dose
- Amount in urine collected for 10 h after consumption of cooked beef ([1]; Subject S-009): 25.2 ± 2.8 ng
- % Dose in urine collected for 10 h after consumption of cooked beef ([1]; Subject S-009): 0.5 % Dose
- Amount in urine collected for 10 h after consumption of cooked beef ([1]; Subject S-012): 50.1 ± 2.8 ng
- % Dose in urine collected for 10 h after consumption of cooked beef ([1]; Subject S-012): 1.0 % Dose
- Amount in urine collected for 10 h after consumption of cooked beef ([1]; Subject S-013): 37.2 ± 5.2 ng
- % Dose in urine collected for 10 h after consumption of cooked beef ([1]; Subject S-013): 0.7 % Dose
- Amount in urine collected for 10 h after consumption of cooked beef ([1]; Subject S-014): 18.4 ± 1.2 ng
- % Dose in urine collected for 10 h after consumption of cooked beef ([1]; Subject S-014): 0.4 % Dose
- Amount in urine collected for 10 h after consumption of cooked beef ([1]; Subject S-015): 18.3 ± 2.9 ng
- % Dose in urine collected for 10 h after consumption of cooked beef ([1]; Subject S-015): 0.3 % Dose
- Amount in urine collected for 10 h after consumption of cooked beef ([1]; Subject S-020): 38.3 ± 2.5 ng
- % Dose in urine collected for 10 h after consumption of cooked beef ([1]; Subject S-020): 0.7 % Dose

Structure (SMILES): Cn1c(=NO)n([C@@H]2O[C@H](C(=O)O)[C@@H](O)[C@H](O)[C@H]2O)c2ncc(-c3ccccc3)cc21 [HONH-PhIP-N3-GI, N3-(ß-1-glucosidurony1)-N-hydroxy-2-amino-1-methy1-6-phenylimidazo[4,5-b]pyridine]
- Amount in urine collected for 10 h after consumption of cooked beef ([1]; Subject S-001): 238 ± 7.4 ng
- % Dose in urine collected for 10 h after consumption of cooked beef ([1]; Subject S-001): 2.6 % Dose
- Amount in urine collected for 10 h after consumption of cooked beef ([1]; Subject S-003): 189 ± 10.6 ng
- % Dose in urine collected for 10 h after consumption of cooked beef ([1]; Subject S-003): 2.1 % Dose
- Amount in urine collected for 10 h after consumption of cooked beef ([1]; Subject S-005): 176 ± 4.2 ng
- % Dose in urine collected for 10 h after consumption of cooked beef ([1]; Subject S-005): 1.9 % Dose
- Amount in urine collected for 10 h after consumption of cooked beef ([1]; Subject S-008): 222 ± 10.0 ng
- % Dose in urine collected for 10 h after consumption of cooked beef ([1]; Subject S-008): 2.5 % Dose
- Amount in urine collected for 10 h after consumption of cooked beef ([1]; Subject S-009): 191 ± 5.5 ng
- % Dose in urine collected for 10 h after consumption of cooked beef ([1]; Subject S-009): 2.1 % Dose
- Amount in urine collected for 10 h after consumption of cooked beef ([1]; Subject S-012): 319 ± 6.0 ng
- % Dose in urine collected for 10 h after consumption of cooked beef ([1]; Subject S-012): 3.5 % Dose
- Amount in urine collected for 10 h after consumption of cooked beef ([1]; Subject S-013): 179 ± 7.0 ng
- % Dose in urine collected for 10 h after consumption of cooked beef ([1]; Subject S-013): 2.0 % Dose
- Amount in urine collected for 10 h after consumption of cooked beef ([1]; Subject S-014): 89.5 ± 3.3 ng
- % Dose in urine collected for 10 h after consumption of cooked beef ([1]; Subject S-014): 1.0 % Dose
- Amount in urine collected for 10 h after consumption of cooked beef ([1]; Subject S-015): 216 ± 12.0 ng
- % Dose in urine collected for 10 h after consumption of cooked beef ([1]; Subject S-015): 2.4 % Dose
- Amount in urine collected for 10 h after consumption of cooked beef ([1]; Subject S-020): 253 ± 4.9 ng
- % Dose in urine collected for 10 h after consumption of cooked beef ([1]; Subject S-020): 2.8 % Dose

Structure (SMILES): Cn1c(N(O)[C@@H]2O[C@H](C(=O)O)[C@@H](O)[C@H](O)[C@H]2O)nc2ncc(-c3ccccc3)cc21 [HONH-PhIP-N^2-GI, N^2-(ß-1-glucosidurony1)-N-hydroxy-2-amino-1-methy1-6-phenylimidazo[4,5-b]pyridine]
- Amount in urine collected for 10 h after consumption of cooked beef ([1]; Subject S-001): 2201 ± 37.3 ng
- % Dose in urine collected for 10 h after consumption of cooked beef ([1]; Subject S-001): 24.3 % Dose
- Amount in urine collected for 10 h after consumption of cooked beef ([1]; Subject S-003): 2692 ± 121 ng
- % Dose in urine collected for 10 h after consumption of cooked beef ([1]; Subject S-003): 29.7 % Dose
- Amount in urine collected for 10 h after consumption of cooked beef ([1]; Subject S-005): 2112 ± 88.5 ng
- % Dose in urine collected for 10 h after consumption of cooked beef ([1]; Subject S-005): 23.3 % Dose
- Amount in urine collected for 10 h after consumption of cooked beef ([1]; Subject S-008): 2198 ± 88.2 ng
- % Dose in urine collected for 10 h after consumption of cooked beef ([1]; Subject S-008): 24.3 % Dose
- Amount in urine collected for 10 h after consumption of cooked beef ([1]; Subject S-009): 2009 ± 31.0 ng
- % Dose in urine collected for 10 h after consumption of cooked beef ([1]; Subject S-009): 22.2 % Dose
- Amount in urine collected for 10 h after consumption of cooked beef ([1]; Subject S-012): 2621 ± 86.0 ng
- % Dose in urine collected for 10 h after consumption of cooked beef ([1]; Subject S-012): 29.0 % Dose
- Amount in urine collected for 10 h after consumption of cooked beef ([1]; Subject S-013): 1848 ± 25.6 ng
- % Dose in urine collected for 10 h after consumption of cooked beef ([1]; Subject S-013): 20.4 % Dose
- Amount in urine collected for 10 h after consumption of cooked beef ([1]; Subject S-014): 1274 ± 29.0 ng
- % Dose in urine collected for 10 h after consumption of cooked beef ([1]; Subject S-014): 14.1 % Dose
- Amount in urine collected for 10 h after consumption of cooked beef ([1]; Subject S-015): 2067 ± 103 ng
- % Dose in urine collected for 10 h after consumption of cooked beef ([1]; Subject S-015): 22.8 % Dose
- Amount in urine collected for 10 h after consumption of cooked beef ([1]; Subject S-020): 2223 ± 15.6 ng
- % Dose in urine collected for 10 h after consumption of cooked beef ([1]; Subject S-020): 24.6 % Dose

Structure (SMILES): Cc1cnc2ccc3c(nc(N)n3C)c2n1 [MeIQx, 2-amino-3,8-dimethylimidazo[4,5-f]quinoxaline]
- Share of elimination accounted for by P450 1A2 (P450 1A2 [2]): 90%
- Vmax, oxidation of the 8-methyl group to form IQx-8-CH2OH (P450 1A2 [3]): 0.1 nmol/min/mg protein
- Vmax, production of HONH-MeIQx (P450 1A2 [3]): 3.9 nmol/ min/mg of protein
- Km (P450 1A2 [3]; read-out: Km, oxidation of the 8-methyl group to form IQx-8-CH2OH): 3.1 µM
- Km (P450 1A2 [3]; read-out: Km, production of HONH-MeIQx): 15 µM
- pKa [4]: 5.94
- Amount in urine, Overall mean ([1]; Subject 9): 22.1 pg/mL
- Amount in urine, Overall mean ([1]; Subject 14): 10.4 pg/mL
- Amount in urine, Overall mean ([1]; Subject 20): 29.2 pg/mL
- Amount in urine collected for 10 h after consumption of cooked beef ([1]; Subject S-001): 80.3 ± 2.7 ng
- % Dose in urine collected for 10 h after consumption of cooked beef ([1]; Subject S-001): 8.7 % Dose
- Amount in urine collected for 10 h after consumption of cooked beef ([1]; Subject S-003): 26.7 ± 1.6 ng
- % Dose in urine collected for 10 h after consumption of cooked beef ([1]; Subject S-003): 2.9 % Dose
- Amount in urine collected for 10 h after consumption of cooked beef ([1]; Subject S-005): 32.4 ± 1.5 ng
- % Dose in urine collected for 10 h after consumption of cooked beef ([1]; Subject S-005): 3.5 % Dose
- Amount in urine collected for 10 h after consumption of cooked beef ([1]; Subject S-008): 33.8 ± 1.3 ng
- % Dose in urine collected for 10 h after consumption of cooked beef ([1]; Subject S-008): 3.7 % Dose
- Amount in urine collected for 10 h after consumption of cooked beef ([1]; Subject S-009): 45.7 ± 1.4 ng
- % Dose in urine collected for 10 h after consumption of cooked beef ([1]; Subject S-009): 5.0 % Dose
- Amount in urine collected for 10 h after consumption of cooked beef ([1]; Subject S-012): 48.3 ± 1.9 ng
- % Dose in urine collected for 10 h after consumption of cooked beef ([1]; Subject S-012): 5.2 % Dose
- Amount in urine collected for 10 h after consumption of cooked beef ([1]; Subject S-013): 60.9 ± 3.2 ng
- % Dose in urine collected for 10 h after consumption of cooked beef ([1]; Subject S-013): 6.6 % Dose
- Amount in urine collected for 10 h after consumption of cooked beef ([1]; Subject S-014): 20.6 ± 0.9 ng
- % Dose in urine collected for 10 h after consumption of cooked beef ([1]; Subject S-014): 2.2 % Dose
- Amount in urine collected for 10 h after consumption of cooked beef ([1]; Subject S-015): 39.2 ± 2.0 ng
- % Dose in urine collected for 10 h after consumption of cooked beef ([1]; Subject S-015): 4.2 % Dose
- Amount in urine collected for 10 h after consumption of cooked beef ([1]; Subject S-020): 51.5 ± 2.2 ng
- % Dose in urine collected for 10 h after consumption of cooked beef ([1]; Subject S-020): 5.6 % Dose

Structure (SMILES): Cc1cnc2ccc3c(nc(N[C@@H]4O[C@H](C(=O)O)[C@@H](O)[C@H](O)[C@H]4O)n3C)c2n1 [MeIQx-N^2-Gl, N^2-(ß-1-glucosiduronyl)-2-amino-3,8-dimethylimidazo[4,5-f]quinoxaline]
- Behaviour under acid hydrolysis conditions [5]: quantitatively hydrolyzed to the parent amines

Structure (SMILES): Cc1cnc2ccc3c(nc(NS(=O)(=O)O)n3C)c2n1 [MeIQx-N^2-SO3H, N^2-(3,8-dimethylimidazo[4,5-f]quinoxalin-2-yl)-sulfamic acid]
- Behaviour under acid hydrolysis conditions [5]: quantitatively hydrolyzed to the parent amines

Structure (SMILES): Cc1cnc2cc3nc(N)n(C)c3cc2n1 [MeIgQx, 2-amino-1,7-dimethylimidazo[4,5-g]quinoxaline]
- Increase in amount in urine following acid hydrolysis [6]: up to 5 fold

Structure (SMILES): Cn1c(=N)n([C@@H]2O[C@H](C(=O)O)[C@@H](O)[C@H](O)[C@H]2O)c2ncc(-c3ccccc3)cc21 [PhIP-N3-Gl, N3-(ß-1-glucosidurony1)-2-amino-1-methy1-6-phenylimidazo[4,5-b]pyridine]
- Amount formed relative to PhIP-N^2-Gl (human liver UGTs): 10 fold
- Behaviour under acid hydrolysis conditions [5]: stable
- Proportion of the conjugate that underwent hydrolysis [5]: < 5%
- Amount present in urine samples [1]: below the LOQ

Structure (SMILES): Cn1c(N[C@@H]2O[C@H](C(=O)O)[C@@H](O)[C@H](O)[C@H]2O)nc2ncc(-c3ccccc3)cc21 [PhIP-N^2-Gl, N^2-(ß-1-glucosidurony1)-2-amino-1-methy1-6-phenylimidazo[4,5-b]pyridine]
- Behaviour under acid hydrolysis conditions [5]: quantitatively hydrolyzed to the parent amines
- Amount present in urine samples [1]: ~ 50 pg/mL
